Results on 22 compounds are retold here after patent US20050004186A1, “MEK inhibiting compounds” (Pfizer Inc, priority 2002, published 2005).

Usually pIC50 stands for the IC50 on a negative log10 scale, so that one unit is a factor of ten. High values mean a low IC50, low ones a high IC50. What is called melting point is the temperature, or range, at which the solid turns liquid.

pIC50: −log10 of the molar value.

For data set [1], the system named is MEK. The experiment in a line: Cellular assay for measuring MEK inhibition, C26CPA1 (inhibition of ERK phosphorylation in C26 cells). Format: cell-based, murine. To be noted: murine colon 26 (C26) carcinoma cells, one hour at 37 C. A digest of the protocol:
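Exponentially growing murine C26 carcinoma cells treated with test compound for one hour at 37° C. CPA1 read-out: Western blot of lysates with dually phosphorylated ERK1/2 antibody, re-probed for total ERK1/2. ELSA read-out: pERK enzyme immunometric ELISA on SDS lysates diluted 1:15.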

For data set [2], the system named is MEK. The data set can be described thus: Cellular assay for measuring MEK inhibition, C26ELSA (pERK ELISA format in C26 cells). To be noted: for C26ELSA % Inhibition @ 5 μM / C26ELSA % Inhib @ 0.5 μM: C26 cells; for pIC50: murine colon 26 (C26) carcinoma cells, one hour at 37 C. Format: cell-based, murine. How it is done:
Cellular Assay for Measuring MEK Inhibition
MEK inhibitors were evaluated by determining their ability to inhibit phosphorylation of MAP kinase (ERK) in murine colon 26 (C26) carcinoma cells. Since ERK1 and ERK2 represent the only known substrates for MEK1 and MEK2, the measurement of inhibition of ERK phosphorylation in cells provides direct read out of cellular MEK inhibition by the compounds of the invention. Detection of phosphorylation of ERK was carried out either by Western blot or ELISA format. Briefly, the assays involve treatment of exponentially growing C26 cells with varying concentrations of the test compound (or vehicle control) for one hour at 37≡ C. For Western blot assay, cells were rinsed free of compound/vehicle and lysed in a solution containing 70 mM NaCl, 50 mM glycerol phosphate, 10 mM HEPES, […], 1% Triton X-100, 1 mM Na3VO4, 100 μM PMSF, 10 μM leupeptin and 10 μM pepstatin. Supernatants were then subjected to gel electrophoresis and hybridized to a primary antibody recognizing dually phosphorylated ERK1 and ERK2. To evaluate total MAPK levels, blots were subsequently ‘stripped’ and re-probed with a 1:1 mixture of polyclonal antibodies recognizing unphosphorylated ERK1 and ERK2. For pERK ELISA assay, pERK TiterZyme Enzyme immunometric Assay kits were acquired from Assay Designs, Inc (Ann Arbor, Mich.). Briefly, cells were harvested in lysis solution containing 50 mM β-glycerophosphate, 10 mM HEPES, pH7.4, 70 mM NaCl, 2 mM EDTA and 1% SDS and protein lysates were diluted 1:15 with supplied Assay buffer prior to the execution of the assay. The subsequent steps were carried out essentially as recommended by the manufacturer.
For orientation: ELISA stands for enzyme-linked immunosorbent assay.

Compound `CN(C)CC(C)(C)CNc1nnc(-c2ccc(F)c(F)c2Nc2ccc(I)cc2F)o1` [Example 19, N-{5-[3,4-Difluoro-2-(2-fluoro-4-iodo-phenylamino)-phenyl]-[1,3,4]oxadiazol-2-yl}-2,2,N′,N′-tetramethyl-propane-1.3-diamine] gave a melting point of 143 to 146 °C. Moreover, the pIC50 in the data set on MEK [1] was 6.51.

For the compound `COCCN1CCN(c2nnc(-c3ccc(F)c(F)c3Nc3ccc(I)cc3F)o2)CC1` [Example 22, (2,3-Difluoro-6-{5-[4-(2-methoxy-ethyl)-piperazin-1-yl]-[1,3,4]oxadiazol-2-yl}-phenyl)-(2-fluoro-4-iodo-phenyl)-amine], the melting point lay in the range of 63 to 65 °C. For the same compound, the pIC50 with MEK [1] was 6.89.

Compound `CC(C)(CO)CCCNc1nnc(-c2ccc(F)c(F)c2Nc2ccc(I)cc2F)o1` [Example 23, 5-{5-[3,4-Difluoro-2-(2-fluoro-4-iodo-phenylamino)-phenyl]-[1,3,4]oxadiazol-2-ylamino}-2,2-dimethyl-pentan-1-ol] yielded a melting point of 67 to 70 °C. This compound also had a pIC50 in the data set with MEK [1] of 6.53.

Consider `OC1CCN(c2nnc(-c3ccc(F)c(F)c3Nc3ccc(I)cc3F)o2)C1` (stereo not drawn) [Example 24, 1-{5-[3.4-Difluoro-2-(2-fluoro-4-iodo-phenylamino)-phenyl]-[1,3,4]oxadiazol-2-yl}-pyrrolidin-3-ol], for which the melting point lay in the range of 182 to 183 °C. In the data set with MEK [1], this compound had a pIC50 of 6.77.

On to `OCC1CCN(c2nnc(-c3ccc(F)c(F)c3Nc3ccc(I)cc3F)o2)CC1` [Example 25, (1-{5-[3,4-Difluoro-2-(2-fluoro-4-iodo-phenylamino)-phenyl]-[1,3,4]oxadiazol-2-yl}-piperidin-4-yl)-methanol], for which the melting point was 90 to 92 °C. In addition, the negative-log IC50 (pIC50) in the data set on MEK [1] is less than 6.00.

Consider `OCCC1CCN(c2nnc(-c3ccc(F)c(F)c3Nc3ccc(I)cc3F)o2)CC1` [Example 26, 2-(1-{5-[3,4-Difluoro-2-(2-fluoro-4-iodo-phenylamino)-phenyl]-[1,3,4]oxadiazol-2-yl}-piperidin-4-yl)-ethanol], for which the melting point was 121 to 122 °C. Besides, the pIC50 in the data set on MEK [1] was 6.85.

Take `CCN(CCCCO)c1nnc(-c2ccc(F)c(F)c2Nc2ccc(I)cc2F)o1` [Example 27, 4-({5-[3,4-Difluoro-2-(2-fluoro-4-iodo-phenylamino)-phenyl]-[1,3,4]oxadiazol-2-yl}-ethyl-amino)-butan-1-ol]: the melting point was 121 to 122 °C. The pIC50 in the data set on MEK [1] is 6.74.

Compound `OC1CCN(c2nnc(-c3ccc(F)c(F)c3Nc3ccc(I)cc3F)o2)CC1` [Example 28, 1-{5-[3,4-Difluoro-2-(2-fluoro-4-iodo-phenylamino)-phenyl]-[1,3,4]oxadiazol-2-yl}-piperidin-4-ol] registered a melting point of 216 to 217 °C. For the same compound, the pIC50 in the data set with MEK [1] is 7.13.

`OCCNc1nnc(-c2ccc(F)c(F)c2Nc2ccc(I)cc2F)o1` [Example 29, 2-{5-[3,4-Difluoro-2-(2-fluoro-4-iodo-phenylamino)-phenyl]-[1,3,4]oxadiazol-2-ylamino}-ethanol] returned a melting point of 100 to 103 °C. The pIC50 with MEK [1] was 7.82.

For `OCCCCNc1nnc(-c2ccc(F)c(F)c2Nc2ccc(I)cc2F)o1` [Example 31, 4-{5-[3,4-Difluoro-2-(2-fluoro-4-iodo-phenylamino)-phenyl]-[1,3,4]oxadiazol-2-ylamino}-butan-1-ol], the melting point was 82 to 83 °C. The pIC50 in the data set with MEK [1] is 7.92.

With `OCCCCCNc1nnc(-c2ccc(F)c(F)c2Nc2ccc(I)cc2F)o1` [Example 32, 5-{5-[3,4-Difluoro-2-(2-fluoro-4-iodo-phenylamino)-phenyl]-[1,3,4]oxadiazol-2-ylamino}-pentan-1-ol], the melting point was 119 to 121 °C. For the same compound, the negative-log IC50 (pIC50) in the data set with MEK [1] is 6.92.

On to `CCc1ccc(Nc2c(-c3nnc(NCCNC)o3)ccc(F)c2F)c(F)c1` [Example 67, N-{5-[2-(4-Ethyl-2-fluoro-phenylamino)-3,4-difluoro-phenyl]-[1,3,4]oxadiazol-2-yl}-N′-methyl-ethane-1,2-diamine], for which the melting point lay in the range of 154 to 157 °C. Moreover, the pIC50 with MEK [1] was 7.80.

In the case of `CCc1ccc(Nc2c(-c3nnc(NCCN4CCOCC4)o3)ccc(F)c2F)c(F)c1` [Example 68, {5-[2-(4-Ethyl-2-fluoro-phenylamino)-3,4-difluoro-phenyl]-[1,3,4]oxadiazol-2-yl}-(2-morpholin-4-yl-ethyl)-amine], the melting point was in the range of 233 to 238 °C. This compound also had a negative logarithm of the IC50 (pIC50) with MEK [1] of 7.30.

The compound `CCc1ccc(Nc2c(-c3nnc(NCCO)o3)ccc(F)c2F)c(F)c1` [Example 69, 2-{5-[2-(4-Ethyl-2-fluoro-phenylamino)-3,4-difluoro-phenyl]-[1,3,4]oxadiazol-2-ylamino}-ethanol] displayed a melting point of 100 to 103 °C. For the same compound, in the data set on MEK [1], the pIC50 is 7.00.

The compound `CCNc1nnc(-c2ccc(F)c(F)c2Nc2ccc(I)cc2F)s1` [Example 71, {5-[3,4-Difluoro-2-(2-fluoro-4-iodo-phenylamino)-phenyl]-[1,3,4]thiadiazol-2-yl}-ethyl-amine] displayed a melting point of 238 to 239 °C. The same compound gave a pIC50 in the data set with MEK [1] of 6.74.

With `C#Cc1ccc(Nc2c(-c3nnc(CC)o3)ccc(F)c2F)c(F)c1` [Example 144, [6-(5-Ethyl-[1,3,4]oxadiazol-2-yl)-2,3-difluoro-phenyl]-(4-ethynyl-2-fluoro-phenyl)-amine], the “C26ELSA % Inhibition @ 5 μM” value in the data set with MEK [2] was found to be 43%.

On to `CCc1ccc(Nc2c(-c3nnc(CCCBr)o3)ccc(F)c2F)c(F)c1` [Example 145, {6-[5-(3-Bromo-propyl)-[1,3,4]oxadiazol-2-yl]-2,3-difluoro-phenyl}-(4-ethyl-2-fluoro-phenyl)-amine], for which the “C26ELSA % Inhibition @ 5 μM” value with MEK [2] worked out at 13%.

Consider `CCc1ccc(Nc2c(-c3nnc(CCCN4CCOCC4)o3)ccc(F)c2F)c(F)c1` [Example 146, {2,3-Difluoro-6-[5-(3-morpholin-4-yl-propyl)-[1,3,4]oxadiazol-2-yl]-phenyl}-(4-ethyl-2-fluoro-phenyl)-amine], for which the “C26ELSA % Inhibition @ 5 μM” value with MEK [2] is reported as 6%.

For the compound `CC(=O)c1ccc(Nc2c(-c3nnc(NCCN4CCOCC4)o3)ccc(F)c2F)c(F)c1` [Example 149, 1-(4-{2,3-Difluoro-6-[5-(2-morpholin-4-yl-ethylamino)-[1,3,4]oxadiazol-2-yl]-phenylamino}-3-fluoro-phenyl)-ethanone], in the data set with MEK [2], the “C26ELSA % Inhib @ 0.5 μM” value was determined as 2% and the “C26ELSA % Inhibition @ 5 μM” value is 14%.

`C#Cc1ccc(Nc2c(-c3nnc(NC[C@@H](O)CO)o3)ccc(F)c2F)c(F)c1` [Example 151, 3-{5-[2-(4-Ethynyl-2-fluoro-phenylamino)-3,4-difluoro-phenyl]-[1,3,4]oxadiazol-2-ylamino}-propane-1,2(R)-diol] showed a pIC50 in the data set with MEK [2] of 6.92.

In the case of `OCCc1ccc(Nc2c(-c3nnc(NCCN4CCOCC4)o3)ccc(F)c2F)c(F)c1` [Example 157, 2-(4-{2,3-difluoro-6-[5-(2-morpholin-4-yl-ethylamino)-[1,3,4]oxadiazol-2-yl]-phenylamino}-3-fluoro-phenyl)-ethanol], in the data set with MEK [2], the “C26ELSA % Inhib @ 0.5 μM” value came to 31% and the “C26ELSA % Inhibition @ 5 μM” value is reported as 33%.

`OCCNc1nnc(-c2ccc(F)c(F)c2Nc2ccc(CCO)cc2F)o1` [Example 169, 2-(5-{3,4-difluoro-2-[2-fluoro-4-(2-hydroxy-ethyl)phenylamino]-phenyl}-[1,3,4]oxadiazol-2-ylamino)ethanol] had a negative logarithm of the IC50 (pIC50) in the data set with MEK [2] of 5.29.
